Our source for the GI50 and TGI values is PubChem BioAssay (NCI).

Test systems include KM12 colon; M14 melanoma; HT29 colon; A498 renal; SNB-75 CNS; UACC-62 melanoma; SW-620 colon; RXF 393 renal; NCI-H522 lung; MDA-MB-231 breast.
What all share (assay): NCI-60 cell line screen, 48 h

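Five compound concentrations were applied to cells in 96-well plates for 48 hours; endpoints were derived by simple linear interpolation of the resulting dose-response curve. Abbreviation: GI50, concentration required for 50% inhibition of growth. TGI: concentration producing complete growth inhibition.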

Take `COc1ccc(/C(C)=N/NC(=O)CSc2nc3ccccc3c(=O)n2CCc2ccc(S(N)(=O)=O)cc2)cc1`: the GI50 with KM12 colon is 2.06 µM; in the assay with M14 melanoma, 1.91 µM; in the assay with HT29 colon, 1.95 µM; in the assay with A498 renal, 2.1 µM; with SNB-75 CNS, 1.81 µM; with UACC-62 melanoma it was 2.2 µM. The GI50 with SW-620 colon is 2.28 µM; in the assay on RXF 393 renal, 1.72 µM; in the assay on NCI-H522 lung it was 2.26 µM; in the assay with MDA-MB-231 breast, 1.87 µM. Moreover, the TGI stood at 3.96 µM in the assay with KM12 colon; 3.75 µM in the assay on M14 melanoma; 3.7 µM in the assay with HT29 colon; 4.12 µM in the assay with A498 renal; 4.26 µM in the assay on SNB-75 CNS; 4.93 µM in the assay on UACC-62 melanoma. For the same molecule, the TGI with SW-620 colon stood at 5.01 µM; in the assay on RXF 393 renal it was 3.29 µM; in the assay on NCI-H522 lung, 6.75 µM; in the assay on MDA-MB-231 breast it was 3.88 µM.

For `C=C1C(=O)OC2C1C(OC(=O)/C(C)=C/C)CC(O)(CCl)C1C(O)C=C(C)C21O` (centres undefined), the TGI with KM12 colon was 49.8 µM; in the assay on M14 melanoma, 23.8 µM; in the assay on HT29 colon it was 31.5 µM; with A498 renal it was over 60.1 µM; with SNB-75 CNS it was over 59 µM; in the assay with UACC-62 melanoma it was 25.5 µM. The TGI with SW-620 colon turned out to be 15.7 µM; in the assay on RXF 393 renal it was 18.3 µM; with NCI-H522 lung it was 3.29 µM; in the assay on MDA-MB-231 breast, 30.9 µM.

Turning to `O=C1CC[C@H](N2Cc3c(OCc4ccc(CN5CCOCC5)cc4)cccc3C2=O)C(=O)N1`, the GI50 with KM12 colon, with M14 melanoma, with HT29 colon, with A498 renal, in the assay on SNB-75 CNS and in the assay with UACC-62 melanoma was over 100 µM throughout. The GI50 in the assay on SW-620 colon, with RXF 393 renal, in the assay on NCI-H522 lung and with MDA-MB-231 breast was over 100 µM throughout. The TGI with KM12 colon, with M14 melanoma, with HT29 colon, in the assay on A498 renal, with SNB-75 CNS and with UACC-62 melanoma was over 100 µM in each case. The TGI in the assay with SW-620 colon, in the assay with RXF 393 renal, in the assay with NCI-H522 lung and in the assay with MDA-MB-231 breast was over 100 µM throughout.

With `Cc1cc(C(=O)Nc2n[nH]c3ccccc23)n[nH]1`, the GI50 was 28.9 µM with KM12 colon; over 100 µM with M14 melanoma; over 100 µM in the assay with HT29 colon; over 100 µM in the assay with A498 renal; 62.6 µM with SNB-75 CNS; over 100 µM with UACC-62 melanoma. Also, the GI50 in the assay on SW-620 colon, with RXF 393 renal, in the assay on NCI-H522 lung and in the assay with MDA-MB-231 breast was over 100 µM in each case. Also, the TGI with KM12 colon, in the assay with M14 melanoma, in the assay with HT29 colon, in the assay on A498 renal, in the assay with SNB-75 CNS and with UACC-62 melanoma was over 100 µM throughout. In addition, the TGI in the assay on SW-620 colon, with RXF 393 renal, in the assay with NCI-H522 lung and in the assay with MDA-MB-231 breast was over 100 µM throughout.

In the case of `Cc1ccc(C(=O)NCCCOc2ccc(N3C(N)=NC(N)=NC3(C)C)cc2Cl)cc1S(=O)(=O)F`, the GI50 in the assay with KM12 colon is 39 µM; in the assay on M14 melanoma, 44.7 µM; in the assay on HT29 colon it was 6.61 µM; in the assay on A498 renal, over 100 µM; in the assay on SNB-75 CNS it was 13.4 µM; in the assay on UACC-62 melanoma, 9.39 µM. The GI50 was 10.2 µM in the assay with SW-620 colon, over 100 µM in the assay on RXF 393 renal, 61.7 µM with NCI-H522 lung and over 100 µM in the assay on MDA-MB-231 breast. In addition, the TGI in the assay with KM12 colon, in the assay on M14 melanoma, in the assay on HT29 colon, in the assay with A498 renal, with SNB-75 CNS and with UACC-62 melanoma was over 100 µM throughout. The TGI in the assay on SW-620 colon, with RXF 393 renal, in the assay with NCI-H522 lung and with MDA-MB-231 breast was over 100 µM in each case.

As for `Nc1c(C(=O)Nc2ccccn2)sc2nc3c(cc12)C(O)CCC3` (centres undefined), the GI50 in the assay with KM12 colon was 1.95 µM; with M14 melanoma it was 0.949 µM; in the assay on HT29 colon it was 1.55 µM; in the assay with A498 renal, 1.53 µM; in the assay on SNB-75 CNS, 1.66 µM; in the assay on UACC-62 melanoma, 1.75 µM. For the same molecule, the GI50 is 1.62 µM with SW-620 colon, 1.69 µM with RXF 393 renal, 0.815 µM in the assay on NCI-H522 lung and 18.3 µM with MDA-MB-231 breast. The TGI in the assay on KM12 colon, in the assay on M14 melanoma, with HT29 colon, in the assay with A498 renal, with SNB-75 CNS and with UACC-62 melanoma was over 50 µM in each case. For the same molecule, the TGI with SW-620 colon was over 50 µM; in the assay on RXF 393 renal it was over 50 µM; in the assay on NCI-H522 lung, 2.02 µM; in the assay on MDA-MB-231 breast, over 50 µM.

Take `O=C1Nc2cc(-c3cccc(O)c3)ccc2/C1=C/c1ccc[nH]1`: the GI50 in the assay on KM12 colon was 0.225 µM; in the assay on M14 melanoma, 1.68 µM; in the assay on HT29 colon it was 4.71 µM; in the assay on A498 renal, 1.48 µM; in the assay with SNB-75 CNS, 1.31 µM; with UACC-62 melanoma, 2.63 µM. Also, the GI50 in the assay on SW-620 colon was 1.17 µM; in the assay on RXF 393 renal, 0.476 µM; in the assay on NCI-H522 lung, 1.6 µM; in the assay on MDA-MB-231 breast, 0.163 µM. Moreover, the TGI with KM12 colon came to 2.52 µM; in the assay with M14 melanoma it was 3.54 µM; in the assay with HT29 colon, 30.6 µM; with A498 renal, 4.1 µM; in the assay with SNB-75 CNS, 4.53 µM; in the assay on UACC-62 melanoma it was 8.89 µM. Also, the TGI with SW-620 colon is 8.27 µM; in the assay on RXF 393 renal, 2.73 µM; with NCI-H522 lung, 14.1 µM; with MDA-MB-231 breast, 7.39 µM.

On to `Cc1ccc(C(=O)c2sc3nc4c(cc3c2N)CCCC4)c(C)c1`, for which the GI50 with KM12 colon is 0.251 µM; in the assay on M14 melanoma, 0.19 µM; in the assay with HT29 colon it was 0.443 µM; in the assay with A498 renal, 0.236 µM; in the assay on SNB-75 CNS, 0.247 µM; in the assay on UACC-62 melanoma it was 0.256 µM. Also, the GI50 is 0.265 µM in the assay on SW-620 colon, 0.328 µM in the assay on RXF 393 renal, 0.126 µM in the assay on NCI-H522 lung and 1.08 µM with MDA-MB-231 breast. The TGI is over 100 µM in the assay on KM12 colon; over 100 µM in the assay on M14 melanoma; over 35 µM with HT29 colon; 11 µM in the assay on A498 renal; 6.16 µM in the assay on SNB-75 CNS; over 100 µM with UACC-62 melanoma. For the same molecule, the TGI in the assay on SW-620 colon was over 100 µM; with RXF 393 renal, 2.31 µM; in the assay with MDA-MB-231 breast it was over 100 µM.
